Assays:
[1] = test system: neutrophilic granulocytes, lymphocytes and macrophages; assay: Preliminary rapid test: immunostimulant effect; type: in vivo, CFLP male mice; conditions: oral, one-tenth of LD50; 24 hours
[2] = test system: neutrophylic granulocytes and limphocytes; conditions: mouse, in vivo, po
NK-ly-ascites lymphoma = NK-ly-ascites lymphoma in vivo; parameters: species or system CFLP male mice; conditions: for Activity against NK-ly-ascites tumor: concentration below one-tenth of the LD50 value; for Survival rate and lifetime: dose-dependant
NK-yl ascites tumor = assay: Combinations with known cytostatic agents in NK-ly ascites tumor; type: in vivo, CFLP mice; conditions: with cyclophosphamide, carnomustine, degranol, dibromo dulcitol or dibromo mannitol

| SMILES | LD50 at 24 h (in vivo; po) | Immunostimulant effect [1] | Toxic effect [2] | LD50 at 24 h (in vivo; ip) | Activity against NK-ly-ascites tumor (NK-ly-ascites lymphoma) | Survival rate and lifetime (NK-ly-ascites lymphoma) | Antitumor effect of combination vs cytostatic agent alone (NK-yl ascites tumor) | Immunodepression of combination vs cytostatic agent alone (NK-yl ascites tumor) |
| --- | --- | --- | --- | --- | --- | --- | --- | --- |
| CSC(=N)NC(=N)N [Example 9, N-Aminoiminomethyl-S-Methyl-Isothiuronium Iodide] | 2320 ± 220 mg/kg | medium (Medium effect is observed if the increase of cell number or activity over the control amounts to 20%) |  |  |  |  |  |  |
| CCCSC(=N)NC(=N)N [Example 10, N-Aminoiminomethyl-S-n-Propyl-Isothuronium Bromide] | 2800 ± 260 mg/kg | medium (Medium effect is observed if the increase of cell number or activity over the control amounts to 20%) | 0 |  |  |  |  |  |
| C=CCSC(=NC)NC(=N)N [Example 20, N-Aminoiminomethyl-N'-Methyl-S-Allyl-Isothiuronium Chloride] | 600 ± 54 mg/kg | weak | 0 | 75 ± 6.3 mg/kg | active agains Nk-ly-ascites tumor in a concentration below one-tenth of the LD50 value | increase survival rate and lifetime in a dose-dependant manner |  |  |
| C=CCSC(=NC(C)C)NC(=N)N [Example 21, N-aminoiminomethyl-N'-Isopropyl-S-Allyl-Isothiuronium Chloride] | 280 ± 26 mg/kg | weak | 0 | 32 ± 4 mg/kg |  |  |  |  |
| CCSC(=N)NC(=N)N [Example 23, N-aminoiminomethyl-S-ethyl-isothiuronium bromide] | 3080 ± 290 mg/kg | strong (The effect is strong if the increase of the cell number and activity of the immune system is more than 20% higher than the control) | 0 |  |  |  |  |  |
| CC(C)SC(=N)NC(=N)N [Example 24, N-aminoiminomethyl-S-isopropyl-isothiuronium bromide] | 2260 ± 210 mg/kg | medium (Medium effect is observed if the increase of cell number or activity over the control amounts to 20%) | 0 |  |  |  |  |  |
| CCCCSC(=N)NC(=N)N [Example 25, N-aminoiminomethyl-S-n-butyl-isothiuronium bromide] | 2700 ± 310 mg/kg | medium (Medium effect is observed if the increase of cell number or activity over the control amounts to 20%) | 0 |  |  |  |  |  |
| CC(C)CCSC(=N)NC(=N)N [Example 26, N-aminoiminomethyl-S-isoamyl-isothiuronium bromide] | 2260 ± 241 mg/kg | medium (Medium effect is observed if the increase of cell number or activity over the control amounts to 20%) | 0 |  |  |  |  |  |
| N=C(N)NC(=N)SCCCO [Example 29, N-aminoiminomethyl-S-(3-hydroxy-propyl)-isothiuronium bromide] | 2860 ± 180 mg/kg | medium (Medium effect is observed if the increase of cell number or activity over the control amounts to 20%) | 0 |  |  |  |  |  |
| C#CCSC(=N)NC(=N)N [Example 31, N-aminoiminomethyl-S-propargyl-isothuronium bromide] | 90 mg/kg |  |  |  |  |  |  |  |
| C=C(C)CSC(=N)NC(=N)N [Example 44, N-(Aminoiminomethyl)-S-Metallyl-Isothiuronium-Bromide] | 1640 ± 210 mg/kg | medium (Medium effect is observed if the increase of cell number or activity over the control amounts to 20%) | 0 |  |  |  |  |  |
| C=CCN=C(NC(=N)N)SCC=C [Example 45, N-(Aminoiminomethyl)-N'-Allyl-S-Allyl-Isothiuronium Bromide] | 380 ± 41 mg/kg | weak | 0 | 36 ± 4 mg/kg | active agains Nk-ly-ascites tumor in a concentration below one-tenth of the LD50 value | increase survival rate and lifetime in a dose-dependant manner | the antitumor effect was strengthened | immunodepression decreased |

Reference: patent US4710578A, “Isothiuronium salts” (Peremartoni Vegyipari Vallalat, priority 1984, dated 1987)
